Results on 1 compound are retold here after patent EP4527828A1, “BIPHENYL COMPOUND, PHARMACEUTICAL COMPOSITION, METHOD FOR PREPARING SAME, AND USE THEREOF” (Longivitron (Suzhou) Biotechnology Co., Ltd, priority 2022, dated 2023).

The target of one assay is T1, LAG3/FGL1 (Homo sapiens, UniProt P18627).
T1 sequence (P18627 23-450 limits assumed): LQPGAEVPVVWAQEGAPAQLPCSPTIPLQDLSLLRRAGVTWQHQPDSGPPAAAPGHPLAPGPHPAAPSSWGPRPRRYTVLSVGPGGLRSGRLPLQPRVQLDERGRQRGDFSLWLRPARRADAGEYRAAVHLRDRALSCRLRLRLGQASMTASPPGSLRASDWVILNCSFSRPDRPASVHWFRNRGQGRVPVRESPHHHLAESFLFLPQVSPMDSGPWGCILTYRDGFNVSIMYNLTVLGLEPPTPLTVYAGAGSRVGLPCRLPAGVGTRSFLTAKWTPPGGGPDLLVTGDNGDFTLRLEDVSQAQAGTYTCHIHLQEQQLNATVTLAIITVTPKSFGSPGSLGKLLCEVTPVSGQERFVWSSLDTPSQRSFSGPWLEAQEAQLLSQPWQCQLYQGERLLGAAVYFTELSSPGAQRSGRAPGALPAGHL
In words: HTRF binding inhibition of LAG3 and its ligand FGL1. Conditions: binding inhibition LAG3/FGL1; read-out: IC50. As to the method: Reagent preparation: ① Tag1-LAG3 protein: a protein solution with a concentration of 50 nM (20 µL with a final system concentration of 10 nM) was prepared using a diluent. ② Tag2-FGL1 protein: a protein solution with a concentration of 100 nM (20 µL with a final system concentration of 20 nM) was prepared using a diluent. ③ Anti-Tag1-Tb: a 100× stock solution was diluted with a detection buffer to a 1 × stock solution. ④ Anti-Tag2-XL665: a 100× stock solution was diluted with a detection buffer to a 1 × stock solution.
Assay step: (1) 2 µL of compound solution (with a concentration to be measured of 10×) was added to a 384-well opaque plate having a white background, 4 µL of Tag1-LAG3 protein and 4 µL of Tag2-FGL1 protein were added, respectively, and the plate was incubated at room temperature for 15 min; (2) Anti-Tag1-Tb and Anti-Tag2-XL665 were mixed at a ratio of 1:1 in advance, and 10 µL of mix solution was added to each well; (3) the plate was gently mixed, sealed, and incubated at room temperature for 1 h or overnight before detection.
In general terms: In TR-FRET formats the signal depends on donor and acceptor labels being close together.

The target of another assay is T2, LAG3/MHCII (Homo sapiens, UniProt P18627).
T2 sequence (P18627 23-450 limits assumed): T1 sequence (P18627 23-450 limits assumed)
Kind of assay: HTRF binding inhibition of LAG3 and its ligand MHCII. Conditions: binding inhibition LAG3/MHCII. As to the method:
HTRF (Homogeneous time-resolved fluorescence) is based on two techniques, fluorescence resonance energy transfer (FRET) and time-resolved fluorescence (TRF). The detection was carried out using a 384-well plate. 2 µL of a compound to be tested with an appropriate concentration was collected, 4 µL of Tag1-LAG3 protein (with a final concentration of 10 nmol·L^-1) was added, 4 µL of Tag2-MHCII (with a final concentration of 20 nmol·L^-1) was added, and the plate was incubated at room temperature for 15 min. 10 µL of Anti-Tag1-Tb working solution (prepared by adding 25 µL of Anti-Tag1-Tab mother solution to 2475 µL of dilution buffer) was added, 10 µL of Anti-Tag2-XL665 working solution (prepared by adding 25 µL of Tag2-XL665 mother solution to 2475 µL of dilution buffer) was added, and the plate was sealed with a film and incubated at room temperature for 1 h. The detection was carried out using a Perkin Elma Envision instrument.

Structures are written as SMILES.

Consider `CCCCCCOc1ccc(C(=O)NCCCCNC(=O)C(F)(F)F)cc1-c1cc(C(=O)NCCCCNC(=O)C(F)(F)F)ccc1OCCCCCC` [Compound 13], for which the IC50 on LAG3/FGL1 was found to be 46 µM; on LAG3/MHCII it was 4.01 µM.

Usually IC50 stands for the concentration needed to halve the response being measured.
